Experimental findings from patent US20220163532A1, “NUCLEAR-DERIVED EXOSOMES AND METHODS OF USE THEREOF” (Board of Regents, The University of Texas System, priority 2019, published 2022) are described below.

What all share (assay type): cell-based, human
For assay [1], the system named is OVCAR-5 and OVCAR-8 cells. Briefly: MN quantification in ovarian cancer cells treated with genotoxic drugs (IF, Lamin A/C). The following applies: topotecan 10 nM or olaparib 20 μM, vs DMSO. As for the experimental part:
IF experiments and MN quantification. Cells were plated at a density of 5×10^4 cells on sterile, 0.17-mm-thick coverslips (12-548-A, Thermo Fisher Scientific) placed at the bottom of six-well plates. The next day, cells were treated for 24 hours with either vehicle control dimethyl sulfoxide (DMSO; 1:1000 dilution; D2650, Sigma-Aldrich), 20 μM olaparib (O-9201, LC Laboratories), or 10 nM topotecan (T2705-50MG, Sigma-Aldrich). After 24 hours, the cells were washed with PBS and refed with the appropriate cell culture medium to grow for another 48 hours, for a total time of 72 hours after initial plating on the coverslips.
The drug-treated cells were first washed three times with PBS, fixed with 4% paraformaldehyde (PFA; 50-980-487, Thermo Fisher Scientific) diluted in PBS, and incubated at RT for 15 min with light rocking. […] Last, cells on coverslips were then washed four times with PBS and mounted on slides using ProLong Diamond Antifade Mountant (P36961, Thermo Fisher Scientific) and imaged with a Leica fluorescence microscope (Leica DM4000 M LED; Leica Microsystems) or an Andor Revolution XDi WD Spinning Disk Confocal microscope. For MN quantification, the number of MN in each 40× field was counted using 10 fields per sample. […]

Assay [2] concerns OVCAR-5 and OVCAR-8 cells. Kind of assay: DNA-positive exosomes (nExo) from drug-treated ovarian cancer cells by imaging flow cytometry. The following applies: topotecan 10 nM or olaparib 20 μM, parental cells treated 48 hours, vs DMSO. The protocol: (§1) Isolation of exosomes. The isolation method for exosomes that was used in this study followed the standard methods of the International Society of Extracellular Vesicles (Witwer et al., 2013). Cell lines described above were grown in the corresponding medium described above until 60 to 70% confluence was achieved. Cells were then washed twice with phosphate-buffered saline (PBS) and grown in corresponding medium containing 1% exosome-free FBS (EXO-FBS-250A-1, System Biosciences) plus 0.1% gentamicin for 48 hours. For exosome isolation, the harvested medium underwent serial centrifugation. First, the medium was spun down at 500g for 10 min to pellet any floating cells. Next, the supernatant was collected and spun down at 2000g for 30 min to pellet any residual cell debris. The resulting supernatant was then filtered through a 0.22-μm filter (SCGPUO5RE and SLGP033RS, Millipore-Sigma) to remove any remaining large vesicles. […] Exosome concentration and quantity were determined using NTA with a NanoSight NS300 instrument (Malvern Panalytical).
Exosome staining for imaging flow cytometry and analysis. For quantitative analysis and imaging flow cytometry of exosomes, the method described by Erdbrugger et al. (2014) using an Amnis ImageStreamX MarkII analyzer was adapted. […]

A further assay concerns ovarian cancer cells. Kind of assay: Nuclear proteins in exosomes from drug-treated ovarian cancer cells (Western blot). The following applies: topotecan 10 nM or olaparib 20 μM. The protocol: as §1, with “vesicles. After filtration, the medium was spun down at 40,000 rpm for 2 hours at 4° C. in an ultracentrifuge (Optima XE, Beckman Coulter) with a Ti 45 fixed-angle rotor (339160, Beckman Coulter).” for “vesicles.”
Western blotting. […] Protein concentration was determined using the Micro BCA Protein Assay Kit (23235, Thermo Fisher Scientific) according to the manufacturer's protocol. […]

As to `O=C(c1cc(Cc2n[nH]c(=O)c3ccccc23)ccc1F)N1CCN(C(=O)C2CC2)CC1` [olaparib], the “number of MN” value in assay [1] is on record as “increased significantly”. The “population of exosomes containing gDNA (proportion of nExo secreted)” value in assay [2] is on record as “increased”. For the same compound, in the assay on ovarian cancer cells, the “population of exosomes containing nuclear proteins” value was “increased”.
